The record followed here is ChEMBL document CHEMBL1130720, “Design, synthesis, and conformational analysis of a novel series of HIV protease inhibitors” (Bioorg Med Chem Lett, 1998).

The target of one assay is T1, Human immunodeficiency virus type 1 protease (Human immunodeficiency virus 1, UniProt Q72874). In words: Binding affinity to HIV-1 protease was determined.
Usually Ki stands for a dissociation constant, usually derived from enzyme kinetics or from competition with a known ligand. On to `COc1ccc(S(=O)(=O)N(CC2CCCC2)C[C@@H](O)CN(CCc2ccccc2)C(=O)Cc2ccccc2)cc1`, for which the Ki was 20 nM. This counts as double-digit nanomolar. The molecule `COc1ccc(S(=O)(=O)N(CC2CCCC2)C[C@@H](O)CN(CCc2ccccc2)C(=O)OCc2cncs2)cc1` came in with an inhibitory constant (Ki) of 38 nM. Compared with the last molecule, the Ki is about 1.9-fold higher. Same read-out and setting: the figure for `COc1ccc(S(=O)(=O)N(CC2CCCC2)C[C@@H](O)CN(Cc2ccccc2)C(=O)O[C@H]2CCOC2)cc1` is 600 nM; for `COc1ccc(S(=O)(=O)N(CC2CCCC2)C[C@@H](O)CN(CCc2ccccc2)C(=O)OC2CCCSC2)cc1` (some centres undefined) it is 300 nM; for `COc1ccc(S(=O)(=O)N(CC2CCCC2)C[C@@H](O)CN(CCc2ccccc2)C(=O)OC2CCCS(=O)(=O)C2)cc1` (some centres undefined) it is 1400 nM. The molecule `COc1ccc(S(=O)(=O)N(CC2CCCC2)C[C@@H](O)CN(CCc2ccccc2)C(=O)Cc2cccc(O)c2C)cc1` returned a Ki of 66 nM. Take `COc1ccc(S(=O)(=O)N(CC2CCCC2)C[C@@H](O)CN(CCc2ccccc2)C(=O)OC2COCOC2)cc1`: the Ki is 15 nM. `COc1ccc(S(=O)(=O)N(CC2CCCC2)C[C@@H](O)CN(CCc2ccccc2)C(=O)O[C@H]2CCOC2)cc1` showed a Ki of 40 nM. As for `COc1ccc(S(=O)(=O)N(CC2CCCC2)C[C@@H](O)CN(CCc2ccccc2)C(=O)Oc2ccccc2)cc1`, the Ki was determined as 173 nM. This Ki lies about 4.3-fold higher than the previous one. On the same count and under the same terms, the figure for `COc1ccc(S(=O)(=O)N(CC2CCCC2)C[C@@H](O)CN(CCc2ccccc2)C(=O)OC2CCSC2)cc1` (some centres undefined) is 104 nM; for `COc1ccc(S(=O)(=O)N(CC2CCCC2)C[C@@H](O)CN(CCc2ccccc2)C(=O)OC2CCS(=O)(=O)C2)cc1` (some centres undefined) it is 38 nM. `COc1ccc(S(=O)(=O)N(CC2CCCC2)C[C@@H](O)CN(CCc2ccccc2)C(=O)Cc2cncc(NS(N)(=O)=O)c2)cc1` registered a Ki of 220 nM. Against the preceding molecule, the Ki is about 5.8-fold higher. Same read-out and setting: the figure for `COc1ccc(S(=O)(=O)N(CC2CCCC2)C[C@@H](O)CN(CCc2ccccc2)C(=O)OC(C)(C)C)cc1` is 125 nM; for `COc1ccc(S(=O)(=O)N(CC2CCCC2)C[C@@H](O)CN(CCc2ccccc2)C(=O)O[C@@H]2CO[C@H]3OCC[C@H]32)cc1` it is 50 nM. Still for that read-out and setting: next, `COc1ccc(S(=O)(=O)N(CC2CCCC2)C[C@@H](O)CN(CCc2ccccc2)C(=O)OCc2cccnc2)cc1`: 17 nM; `COc1ccc(S(=O)(=O)N(CC2CCCC2)C[C@@H](O)CN(CCc2ccccc2)C(=O)Cc2cccc(NS(N)(=O)=O)c2)cc1`: 29 nM. `COc1ccc(S(=O)(=O)N(CC2CCCC2)C[C@@H](O)CN(CCc2ccccc2)C(=O)CC2CCCC(NS(N)(=O)=O)C2)cc1` (some centres undefined) registered a Ki of 76 nM.

Molecule `COc1ccc(S(=O)(=O)N(CC2CCCC2)C[C@@H](O)CN(CCc2ccccc2)C(=O)OCc2ccncc2)cc1` displayed a Ki of 200 nM.

The molecule `COc1ccc(S(=O)(=O)N(CC2CCCC2)C[C@@H](O)CN(CCc2ccccc2)C(=O)Cc2cccc(NS(N)(=O)=O)c2C)cc1` returned a Ki of 680 nM.

`COc1ccc(S(=O)(=O)N(CC2CCCC2)C[C@@H](O)CN(CCc2ccccc2)C(=O)Cc2ccncc2NS(N)(=O)=O)cc1` yielded a Ki of 27 nM.

The molecule `COc1ccc(S(=O)(=O)N(CC(O)CN(CCc2ccccc2)C(=O)N[C@H](C(=O)OCc2ccccc2)C(C)C)CC2CCCC2)cc1` (single isomer, unassigned) yielded an inhibitory constant (Ki) of 7 nM.

In the next assay the target is T1, Human immunodeficiency virus type 1 protease. In words: Binding affinity against HIV-1 protease was determined.
The molecule `COc1ccc(S(=O)(=O)N(CC2CCCC2)C[C@@H](O)CN(CCc2ccccc2)C(=O)Nc2ccccc2)cc1` returned a Ki greater than 20000 nM.

With `CNC(=O)N(CCc1ccccc1)C[C@H](O)CN(CC1CCCC1)S(=O)(=O)c1ccc(OC)cc1`, the affinity, expressed as Ki, was 3400 nM.

Molecule `COc1ccc(S(=O)(=O)N(CC2CCCC2)C[C@@H](O)CN(CCc2ccccc2)C(=O)NC(C)C)cc1` showed a Ki greater than 10000 nM. Regarding `COc1ccc(S(=O)(=O)N(CC2CCCC2)C[C@@H](O)CN(CCc2ccccc2)C(=O)NC(C)(C)C)cc1`, the Ki worked out at 2100 nM. This counts as single-digit micromolar.

`COc1ccc(S(=O)(=O)N(CC2CCCC2)C[C@@H](O)CN(CCc2ccccc2)C(=O)N[C@H]2c3ccccc3C[C@H]2O)cc1`: the affinity, expressed as Ki, was 43 nM.

Take `COc1ccc(S(=O)(=O)N(CC2CCCC2)C[C@@H](O)CN(CCc2ccccc2)C(=O)Nc2cccc(OC)c2)cc1`: the Ki is greater than 10000 nM.

`COc1ccc(S(=O)(=O)N(CC2CCCC2)C[C@@H](O)CN(CCc2ccccc2)C(=O)NC2CCc3ccccc32)cc1` (some centres undefined) had a Ki greater than 10000 nM. The same measure, in the same setting: the figure for `COc1ccc(S(=O)(=O)N(CC2CCCC2)C[C@@H](O)CN(CCc2ccccc2)C(=O)NCc2ccccc2)cc1` is 22 nM.
